Earlier results, collected in patent US20200268735A1, “Combination Therapy of Lasmiditan and a CGRP Antagonist for Use in the Treatment of Migraine” (Eli Lilly and Company, priority 2017, published 2020).
Read-outs that look alike come from different tables or passages of the source.

B1: galcanezumab: monoclonal antibody targeting calcitonin gene-related peptide (CGRP) (antibody, chains of the INN, looked up, V domains shown)
VH: QVQLVQSGAEVKKPGSSVKVSCKASGYTFGNYWMQWVRQAPGQGLEWMGAIYEGTGKTVYIQKFADRVTITADKSTSTAYMELSSLRSEDTAVYYCARLSDYVSGFGYWGQGTTVTVSS
VL: DIQMTQSPSSLSASVGDRVTITCRASKDISKYLNWYQQKPGKAPKLLIYYTSGYHSGVPSRFSGSGSGTDFTLTISSLQPEDFATYYCQQGDALPPTFGGGTKVEIK

Legend:
[1] = SAMURAI, lasmiditan 200 mg, p<0.001
[2] = SPARTAN, lasmiditan 200 mg, p<0.001
[3] = for reduction in mean monthly migraine headache days: placebo 2.3 days

Molecule	proportion of patients headache pain-free at 2 hours post-first dose ([1]; placebo 15.3%) [%]	proportion of patients most bothersome symptom (MBS)-free at 2 hours post-first dose ([1]; placebo 29.5%) [%]	severity of most treatment-emergent adverse events (after the first dose)	headache pain-free and MBS-free endpoints, other dose groups compared to placebo (lasmiditan 100 mg, 50 mg, both endpoints)	most frequently reported TEAEs after the first dose (≥2% and greater than placebo)	proportion of patients headache pain-free at 2 hours post-first dose ([2]; placebo 21.3%) [%]	proportion of patients most bothersome symptom (MBS)-free at 2 hours post-first dose ([2]; placebo 33.5%) [%]	adverse events significantly more frequent versus placebo ([3]; 240 mg group)	all key secondary endpoints versus placebo ([3]; both doses (120 and 240 mg))	adverse events significantly more frequent versus placebo ([3]; both galcanezumab doses)	reduction in mean monthly migraine headache days ([3]; galcanezumab 120 mg once monthly) [days]	reduction in mean monthly migraine headache days ([3]; galcanezumab 240 mg once monthly) [days]	most common treatment-emergent adverse event ([3]; reported at similar rates in all treatment groups)
CN1CCC(C(=O)c2cccc(NC(=O)c3c(F)cc(F)cc3F)n2)CC1 [lasmiditan, 2,4,6-trifluoro-N-[6-(1-methyl-piperidin-4-ylcarbonyl)-pyridin-2-yl]-benzamide]	32.2	40.7	mild-to-moderate	significance was also noted	dizziness, paresthesia, somnolence, fatigue, nausea, and lethargy	38.8	48.7	–	–	–	–	–	–
B1	–	–	–	–	–	–	–	significantly more injection site erythema	superior to placebo	significantly more injection site reactions and injection site pruritus	4.3	4.2	Injection site pain
